From patent publication US7972800B2, “Screening method for binding property or signal transduction alterations” (Takeda Pharmaceutical Company Limited, priority 2003, dated 2011)

Key:
Format in all cases: cell-based
[1] = tested on: CHO cells where the receptor was not expressed or GPCR other than GPR39 was expressed; conditions: FLIPR; control cells
[2] = target: T1, mouse GPR39 (Mus musculus, UniProt Q5U431, T447P); conditions: FLIPR, Fluo-3AM (FIG. 14 through FIG. 18)
T1 construct: expressed in transfected cells; host or cells: CHO cells, vector pAKKO-111H
T1 sequence (Q5U431 1-456 T447P): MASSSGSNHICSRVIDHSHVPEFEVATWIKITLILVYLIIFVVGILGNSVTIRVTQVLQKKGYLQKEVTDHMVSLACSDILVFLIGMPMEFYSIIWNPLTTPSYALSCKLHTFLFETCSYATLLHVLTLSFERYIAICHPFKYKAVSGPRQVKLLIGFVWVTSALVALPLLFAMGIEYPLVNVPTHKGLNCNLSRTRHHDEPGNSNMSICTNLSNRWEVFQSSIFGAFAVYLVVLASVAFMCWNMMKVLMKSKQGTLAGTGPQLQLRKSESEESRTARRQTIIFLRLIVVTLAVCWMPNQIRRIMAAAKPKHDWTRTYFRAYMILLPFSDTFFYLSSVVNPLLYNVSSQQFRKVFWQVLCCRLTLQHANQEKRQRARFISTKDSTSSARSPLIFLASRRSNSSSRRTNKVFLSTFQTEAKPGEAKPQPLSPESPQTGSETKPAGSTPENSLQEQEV
Method: Using the CHO cell line where rat GPR39 was stably expressed, the agonist activity of metal ions was detected using FLIPR in terms of the intracellular calcium-increasing reaction as an indicator. The CHO cell line used, wherein rat GPR39 was stably expressed, was cultured in HAM's αMEM (Invitrogen Corp.) containing 10% calf fetal serum (Invitrogen Corp.). On the day before the assay was conducted, the human GPR39-expressing CHO cell line was cultured in a culture flask to reach a confluent state. After washing with PBS, the cells were scraped off using trypsin and centrifuged for recovery. The cells were then suspended in medium and the suspension was adjusted to 3×10^5 cells/ml. Then, the suspension was dispensed onto a black walled 96-well plate (Costar) in 100 μl each per well, followed by incubation overnight in a CO2 incubator.
On the day when the assay was conducted, various test samples were added to the cells and the changes of intracellular calcium levels in this case were determined by FLIPR (Molecular Device). In order to determine the changes in intracellular calcium levels on FLIPR, the cells were pre-treated by the following procedures. First, for the purpose of adding a fluorescent dye Fluo-3AM (DOJIN) to the cells or washing the cells immediately before the FLIPR assay, an assay buffer was prepared. A solution was prepared by adding 20 ml of 1M HEPES (pH 7.4) (DOJIN) to 1000 ml of HBSS (Invitrogen Corp.) (hereinafter HBSS/HEPES solution), to which solution was added 10 ml of a solution mixture obtained by dissolving 710 mg of Probenecid (Sigma) in 5 ml of 1N NaOH and further adding 5 ml of HBSS/HEPES solution thereto. The resulting solution was used as the assay buffer. Next, 50 μg of Fluo-3AM was dissolved in 21 μl of DMSO (DOJIN) and an equal volume of 20% Pluronic acid (Molecular Probes) was added to and mixed with the solution. The mixture was then added to 10.6 ml of the assay buffer supplemented with 105 μl of fetal calf serum to prepare a fluorescent dye solution. The medium for the CHO cells where human GPR39 was stably expressed was removed. Immediately thereafter, the fluorescent dye solution was dispensed in 100 μl each/well and the cells were incubated in a CO2 incubator for an hour so that the fluorescent dye was taken up into the cells. The cells after the incubation was washed with the assay buffer described above and set on FLIPR. A test sample to be added to the CHO cells where rat GPR39 was stably expressed was prepared using the assay buffer and set on FLIPR at the same time. Following the pre-treatment above, the changes in intracellular calcium levels after the addition of each test sample were determined by FLIPR.
Using the CHO cell line where mouse GPR39 was stably expressed, the agonist activity of metal ions was detected on FLIPR in accordance with the procedures described in EXAMPLE 5, in terms of the intracellular calcium-increasing reaction as an indicator.

[3] = target: T2, human GPR39 (Homo sapiens, UniProt O43194); set-up: expressed in transfected cells; host or cells: CHO cells, vector pAKKO-111H; conditions: FLIPR, Fluo-3AM; metal salt added, 10-300 μM (FIGS. 1-4)
T2 sequence (O43194 1-453): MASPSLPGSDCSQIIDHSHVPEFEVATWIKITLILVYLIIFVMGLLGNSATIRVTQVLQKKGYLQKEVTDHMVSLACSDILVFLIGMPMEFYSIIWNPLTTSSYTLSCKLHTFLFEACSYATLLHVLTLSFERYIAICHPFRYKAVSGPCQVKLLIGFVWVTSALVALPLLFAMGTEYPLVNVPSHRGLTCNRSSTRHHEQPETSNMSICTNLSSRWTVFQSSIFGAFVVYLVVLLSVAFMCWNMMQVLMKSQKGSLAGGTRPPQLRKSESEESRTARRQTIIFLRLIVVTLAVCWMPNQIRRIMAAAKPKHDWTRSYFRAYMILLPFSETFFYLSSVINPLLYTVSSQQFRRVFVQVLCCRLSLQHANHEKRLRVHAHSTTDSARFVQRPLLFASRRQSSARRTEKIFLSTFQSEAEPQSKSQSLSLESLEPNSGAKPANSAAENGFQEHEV
Method: The human GPR39-GFP expression vector-transfected CHO cell line produced in EXAMPLE 1 (CHO/hGPR39-GFP) was diluted in 3×10^4 cells/100 μl. The dilution was dispensed onto a Black walled 96-well plate (Costar) in 100 μl each per well, followed by incubation overnight in a CO2 incubator. Changes in intracellular calcium levels were determined by the following method using FLIPR (Molecular Device). In 21 μl of DMSO (DOJIN), 50 μg of Fluo-3AM (DOJIN) was dissolved and an equal volume of 20% Pluronic acid (Molecular Probes) was added to the solution. After mixing them, the resulting mixture was added to 10.6 ml of assay buffer [prepared by adding 20 ml of 1M HEPES (pH 7.4) (DOJIN) to HBSS (Invitrogen Corp.) and further adding to the solution 10 ml of a solution mixture, which mixture was prepared by dissolving 710 mg of Probenecid (Sigma) in 5 ml of 1N NaOH and then adding thereto 5 ml of the HBSS/HEPES solution above] supplemented with 105 μl of fetal calf serum to prepare a fluorescent dye solution. The medium in the cell plate was removed. Immediately thereafter, the fluorescent dye solution was dispensed in 100 μl each/well and the cells were incubated in a CO2 incubator for an hour so that the fluorescent dye was taken up into the cells. The cells after the incubation were washed with the assay buffer described above and set on FLIPR. Compounds of metal elements to be added to the cells were diluted to the respective concentration with the assay buffer. The dilutions were dispensed onto plates for ligands and set on FLIPR. Following the pre-treatment above, changes in intracellular calcium levels after addition of metal elements were determined by FLIPR to study agonist activities.

Row | SMILES | intracellular calcium response in CHO cells without the receptor or with GPCR other than GPR39 [1] | intracellular calcium levels of CHO/mGPR39 [2] | intracellular calcium levels of CHO/hGPR39-GFP [3]
1 | [Cl][Cu][Cl] [copper chloride] | no such response was observed | dose-dependently increased | dose-dependently increased
2 | [Cl][Ni][Cl] [nickel chloride] | no such response was observed | dose-dependently increased | dose-dependently increased
